Here are results for 57 molecules from US20030229066A1, “Novel heterocyclic urea derivatives and their use as dopamine D3 receptor ligands” (priority 2001, published 2003).

SMILES strings stand for the structures.

The target in the test is T1, cloned human dopamine D3 receptors (Homo sapiens, UniProt P35462).
T1 construct: expressed in transfected cells
T1 sequence (P35462 whole entry): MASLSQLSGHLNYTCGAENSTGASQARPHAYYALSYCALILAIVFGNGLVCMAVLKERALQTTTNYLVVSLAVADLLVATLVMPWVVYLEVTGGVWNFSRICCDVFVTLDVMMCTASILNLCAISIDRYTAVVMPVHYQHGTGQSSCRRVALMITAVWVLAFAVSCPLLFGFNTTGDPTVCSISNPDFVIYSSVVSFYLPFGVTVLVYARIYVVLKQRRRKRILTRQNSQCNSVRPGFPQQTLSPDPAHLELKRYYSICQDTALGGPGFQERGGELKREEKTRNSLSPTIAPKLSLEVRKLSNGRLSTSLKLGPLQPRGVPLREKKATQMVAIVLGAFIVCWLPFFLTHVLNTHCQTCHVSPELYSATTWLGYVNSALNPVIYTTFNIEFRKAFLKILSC
Nature of the test: [N-Methyl-3H]Spiroperidol binding to cloned human dopamine D3 receptors. An excerpt: [N-Methyl-^3H]Spiroperidol Binding to Cloned Human Dopamine D3 Receptors
This assay measures the in vitro activity of compounds on cloned human dopamine (D3) receptors and predicts the direct dopamine-blocking properties of putative neuropsychiatric agents at human dopamine D3 receptors.
The D3 gene was isolated from a human striatal cDNA library (Stratagene). The gene was sequenced and sub-cloned into the expression vector RC/RSV (Invitrogen). CHO (Chinese Hamster Ovary) cells were stably transfected with 10 μg of the D3/RSV plasmid using the DOTAP method from Boehringer Mannheim and 72 clones that were G418 resistant were isolated. Using mRNA and binding displacement data a single high expressing clone was identified. This clone was then grown in large batches for the purpose of developing a 96 well format assay.
The cells are harvested into 250 ml centrifuge tubes with 100 volumes of cold phosphate buffered saline (PBS) and spun down (1200×G for 10 min at 4° C.). The medium is removed and 100 ml PBS are added to each centrifuge tube, cells are resuspened and spun down again. The PBS is removed and the final pellet is homogenized in an appropriate volume of 10% DMSO with a polytron on ice at a medium setting.
For Kj determinations: [^3H]NMSP is made up to a concentration of 2.7 nM in buffer 2b, such that when 150 μl is added to each tube a final concentration of 0.4 nM is attained in the 1 ml assay. Samples of total CPM added are taken for each experiment to calculate the total ligand concentration.
5. S(-)-Eticlopride is obtained from Research Biochemicals International (RBI catalog number E-101). A refrigerated stock (good for up to a month) solution of S(-)-eticlopride is made at a concentration of 30 μM in buffer 2b. One hundred microliters are added to 3 wells for the determination of nonspecific binding (this yields a final concentration of 3 μM in the 1 ml assay).
For most assays, a 100 μM stock solution of the test compound is made up in a suitable solvent (usually <0.1% acetic acid) and serially diluted with buffer 2b, such that when 100 μl of drug is combined with the total 1 ml assay, final concentrations ranging from 10^−5-10^−8 M are attained. Characteristically eight concentrations are studied for each assay; however, higher or lower concentrations may be used, depending on the potency of the drug.
The 96-Well Packard Unifilters GF/B are incubated for >1 h at 25° C. in 0.1% polyethylamine (from 3,b). The cold tissue is added last and mixed on a orbital shaker for a few seconds and is then incubated at 37° C. for 30 min in a shaking water bath. The assay is stopped by rapid filtration through Packard Unifilter plates. The filter membranes are then washed with 15 ml of ice-cold 0.05 M Tris buffer. The filters are then dried (˜15 min under a heat lamp or incubated for 15 min in a 60° C. oven) and a bottom seal is applied. Then 40 μl of Packard Microscint 20 scintillation cocktail is added and a permanent topseal (Type P) is applied and heat sealed. The plates are then shaken on an orbital shaker for 1 h and placed in the Packard Topcount and counted for at least 5 minutes for each point.
Specific binding is defined as the difference between total binding and the binding in the presence of 3 μM S-(-)-eticlopride. Total binding is approximately 10% of the total added ligand. Cheng-Prusoff determination (Kj's) are performed using Prism software using a one-site competition curve analysis where the top and the bottom of the non-linear regression are held constant at 0% and 100% percent inhibition. The percent inhibition at each drug concentration is the mean of duplicate determinations.
Regarding `CC(C)c1ccc(NC(=O)NCCCCN2CCCN(c3csc4cc(F)ccc34)CC2)cc1` [compound 829207], the inhibitory constant (Ki) came out at 141 nM.

In turn, `COc1cc(NC(=O)NCCCCN2CCCN(c3csc4cc(F)ccc34)CC2)cc(OC)c1OC` [compound 829210] showed an inhibition constant Ki of 1.99 nM.

Turning to `O=C(NCCCCN1CCCN(c2csc3cc(F)ccc23)CC1)Nc1cc(C(F)(F)F)ccc1F` [compound 829211], the affinity, expressed as Ki, was 16 nM.

The molecule `O=C(NCCCCN1CCCN(c2csc3cc(F)ccc23)CC1)Nc1c(F)cccc1C(F)(F)F` [compound 829212] yielded an inhibition constant Ki of 49.9 nM.

With `O=C(NCCCCN1CCCN(c2csc3cc(F)ccc23)CC1)Nc1ccc(F)c(C(F)(F)F)c1` [compound 829213], the inhibition constant (Ki) amounted to 181 nM.

`O=C(NCCCCN1CCCN(c2csc3cc(F)ccc23)CC1)Nc1ccc(Cl)cc1` [compound 829214] returned an inhibitory constant (Ki) of 14.1 nM.

As to `O=C(NCCCCN1CCCN(c2csc3cc(F)ccc23)CC1)Nc1ccc(F)cc1` [compound 829215], the Ki worked out at 6.59 nM.

In turn, `O=C(NCCCCN1CCCN(c2csc3cc(F)ccc23)CC1)Nc1ccccc1F` [compound 829216] registered an inhibitory constant (Ki) of 0.178 nM.

Regarding `O=C(NCCCCN1CCCN(c2csc3cc(F)ccc23)CC1)Nc1cccc(F)c1` [compound 829217], the inhibitory constant (Ki) came to 3.51 nM.

In turn, `O=C(NCCCCN1CCCN(c2csc3cc(F)ccc23)CC1)Nc1cccc(C(F)(F)F)c1` [compound 829218] returned a Ki of 0.165 nM.

Molecule `COc1ccc(NC(=O)NCCCCN2CCCN(c3csc4cc(F)ccc34)CC2)cc1` [compound 829219] had an inhibition constant Ki of 0.0926 nM.

`O=C(NCCCCN1CCCN(c2csc3cc(F)ccc23)CC1)Nc1ccc(Br)cc1` [compound 829220]: the inhibitory constant (Ki) came to 18.1 nM.

Molecule `COc1cccc(NC(=O)NCCCCN2CCCN(c3csc4cc(F)ccc34)CC2)c1` [compound 829221] returned an inhibition constant (Ki) of 0.0961 nM.

In the case of `Cc1cccc(NC(=O)NCCCCN2CCN(c3noc4ccsc34)CC2)c1` [compound 829369], the affinity, expressed as Ki, was 44.2 nM.

Consider `O=C(NCCCCN1CCN(c2noc3ccsc23)CC1)Nc1cccc(Cl)c1` [compound 829370], for which the affinity, expressed as Ki, was 4.91 nM.

Molecule `O=C(NCCCCN1CCN(c2noc3ccsc23)CC1)Nc1ccc(F)cc1F` [compound 829371] yielded an inhibition constant (Ki) of 55.2 nM.

As to `O=C(NCCCCN1CCN(c2noc3ccsc23)CC1)Nc1ccc(C(F)(F)F)cc1` [compound 829372], the inhibition constant (Ki) came to 31.9 nM.

For the molecule `O=C(NCCCCN1CCN(c2noc3ccsc23)CC1)Nc1cccc(Br)c1` [compound 829373], the affinity, expressed as Ki, was 14.9 nM.

`O=C(NCCCCN1CCN(c2noc3ccsc23)CC1)Nc1ccc(OC(F)(F)F)cc1` [compound 829374]: the affinity, expressed as Ki, was 103 nM.

As to `O=C(NCCCCN1CCN(c2noc3ccsc23)CC1)Nc1cc(C(F)(F)F)cc(C(F)(F)F)c1` [compound 829375], the Ki stood at 176 nM.

`O=C(NCCCCN1CCN(c2noc3ccsc23)CC1)Nc1cc(F)ccc1F` [compound 829377] registered a Ki of 87.9 nM.

`O=C(NCCCCN1CCN(c2noc3ccsc23)CC1)Nc1cc(Cl)cc(Cl)c1` [compound 829378]: the Ki is 184 nM.

Molecule `CSc1ccc(NC(=O)NCCCCN2CCN(c3noc4ccsc34)CC2)cc1` [compound 829379] came in with an inhibition constant Ki of 54.9 nM.

With `Cc1ccc(NC(=O)NCCCCN2CCN(c3noc4ccsc34)CC2)cc1` [compound 829380], the affinity, expressed as Ki, was 26.9 nM.

With `CC(=O)c1cccc(NC(=O)NCCCCN2CCN(c3noc4ccsc34)CC2)c1` [compound 829381], the affinity corresponds to a Ki of 46.5 nM.

Consider `CCOc1ccc(NC(=O)NCCCCN2CCN(c3noc4ccsc34)CC2)cc1` [compound 829382], for which the inhibition constant Ki was determined as 42.7 nM.

With `N#Cc1cccc(NC(=O)NCCCCN2CCN(c3noc4ccsc34)CC2)c1` [compound 829383], the inhibitory constant (Ki) amounted to 102 nM.

For the molecule `COc1cc(NC(=O)NCCCCN2CCN(c3noc4ccsc34)CC2)cc(OC)c1OC` [compound 829384], the Ki is 190 nM.

As to `O=C(NCCCCN1CCN(c2noc3ccsc23)CC1)Nc1cc(C(F)(F)F)ccc1F` [compound 829385], the inhibitory constant (Ki) came out at 142 nM.

Consider `O=C(NCCCCN1CCN(c2noc3ccsc23)CC1)Nc1ccc(F)c(C(F)(F)F)c1` [compound 829387], for which the affinity, expressed as Ki, was 114 nM.

For the molecule `O=C(NCCCCN1CCN(c2noc3ccsc23)CC1)Nc1ccc(F)cc1` [compound 829388], the Ki turned out to be 44 nM.

With `O=C(NCCCCN1CCN(c2noc3ccsc23)CC1)Nc1ccc(Cl)c(Cl)c1` [compound 829389], the Ki was 50.5 nM.

Regarding `O=C(NCCCCN1CCN(c2noc3ccsc23)CC1)Nc1ccc(Cl)cc1` [compound 829390], affinity was put at a Ki of 37.5 nM.

The molecule `O=C(NCCCCN1CCN(c2noc3ccsc23)CC1)Nc1ccc(Cl)cc1C(F)(F)F` [compound 829392] came in with an inhibition constant (Ki) of 487 nM.

In turn, `O=C(NCCCCN1CCN(c2noc3ccsc23)CC1)Nc1ccccc1F` [compound 829393] gave a Ki of 190 nM.

Regarding `O=C(NCCCCN1CCN(c2noc3ccsc23)CC1)Nc1cccc(F)c1` [compound 829394], the affinity corresponds to a Ki of 77.1 nM.

In turn, `O=C(NCCCCN1CCN(c2noc3ccsc23)CC1)Nc1cccc(C(F)(F)F)c1` [compound 829395] had a Ki of 148 nM.

Molecule `COc1ccc(NC(=O)NCCCCN2CCN(c3noc4ccsc34)CC2)cc1` [compound 829396] had an inhibitory constant (Ki) of 121 nM.

`O=C(NCCCCN1CCN(c2noc3ccsc23)CC1)Nc1ccc(Br)cc1` [compound 829397] had a Ki of 86.6 nM.

On to `COc1cccc(NC(=O)NCCCCN2CCN(c3noc4ccsc34)CC2)c1` [compound 829398], for which affinity was put at a Ki of 44.1 nM.

Molecule `CC(C)c1ccc(NC(=O)NCCCCN2CCN(c3noc4ccsc34)CC2)cc1` [compound 829407] displayed an inhibition constant (Ki) of 452 nM.

The molecule `O=C(NCCCCN1CCCN(c2noc3ccsc23)CC1)Nc1cccc(Cl)c1` [compound 829409] gave a Ki of 379 nM.

As for `O=C(NCCCCN1CCCN(c2noc3ccsc23)CC1)Nc1ccc(C(F)(F)F)cc1` [compound 829411], the Ki stood at 670 nM.

Molecule `O=C(NCCCCN1CCCN(c2noc3ccsc23)CC1)Nc1cc(C(F)(F)F)cc(C(F)(F)F)c1` [compound 829414] gave an inhibition constant (Ki) of 546 nM.

With `O=C(NCCCCN1CCCN(c2noc3ccsc23)CC1)Nc1cc(C(F)(F)F)ccc1Cl` [compound 829415], the Ki stood at 345 nM.

The molecule `O=C(NCCCCN1CCCN(c2noc3ccsc23)CC1)Nc1ccc(Cl)c(C(F)(F)F)c1` [compound 829416] registered an inhibition constant Ki of 327 nM.

`O=C(NCCCCN1CCCN(c2noc3ccsc23)CC1)Nc1cc(F)ccc1F` [compound 829417] registered an inhibition constant (Ki) of 338 nM.

Molecule `O=C(NCCCCN1CCCN(c2noc3ccsc23)CC1)Nc1cc(Cl)cc(Cl)c1` [compound 829418] displayed a Ki of 52.9 nM.

Turning to `Cc1ccc(NC(=O)NCCCCN2CCCN(c3noc4ccsc34)CC2)cc1` [compound 829419], the inhibition constant (Ki) came to 138 nM.

`CSc1ccc(NC(=O)NCCCCN2CCCN(c3noc4ccsc34)CC2)cc1` [compound 829420]: the inhibition constant (Ki) turned out to be 233 nM.

Consider `CC(=O)c1cccc(NC(=O)NCCCCN2CCCN(c3noc4ccsc34)CC2)c1` [compound 829421], for which the affinity corresponds to a Ki of 173 nM.

Molecule `CC(C)c1ccc(NC(=O)NCCCCN2CCCN(c3noc4ccsc34)CC2)cc1` [compound 829422] displayed a Ki of 466 nM.

Consider `O=C(NCCCCN1CCCN(c2noc3ccsc23)CC1)Nc1cc(C(F)(F)F)ccc1F` [compound 829425], for which the inhibitory constant (Ki) was found to be 539 nM.

Take `O=C(NCCCCN1CCCN(c2noc3ccsc23)CC1)Nc1ccc(F)c(C(F)(F)F)c1` [compound 829427]: the inhibitory constant (Ki) stood at 459 nM.

On to `O=C(NCCCCN1CCCN(c2noc3ccsc23)CC1)Nc1ccc(F)cc1` [compound 829428], for which the affinity, expressed as Ki, was 747 nM.

As to `O=C(NCCCCN1CCCN(c2noc3ccsc23)CC1)Nc1ccc(Cl)c(Cl)c1` [compound 829429], the Ki was determined as 111 nM.

Molecule `O=C(NCCCCN1CCCN(c2noc3ccsc23)CC1)Nc1cccc(F)c1` [compound 829431] registered a Ki of 153 nM.

By Ki is commonly meant the dissociation constant of the complex between target and ligand, obtained from inhibition or displacement. The low end stands for higher affinity, the high end for lower affinity.
